Laboratory results: US7314885B2, “Pyrrole compounds useful as kinase inhibitors” (Vertex Pharmaceuticals Incorporated, priority 2003, dated 2008)

Each compound was assayed against c-Met (Homo sapiens, UniProt P08581) (assay: Ki determination for the inhibition of c-Met (coupled enzyme system)). Details: coupled enzyme assay; 200 μM ATP, 10 μM polyGluTyr, 80 nM c-Met, 30° C.
Sequence of c-Met (P08581 25-1390): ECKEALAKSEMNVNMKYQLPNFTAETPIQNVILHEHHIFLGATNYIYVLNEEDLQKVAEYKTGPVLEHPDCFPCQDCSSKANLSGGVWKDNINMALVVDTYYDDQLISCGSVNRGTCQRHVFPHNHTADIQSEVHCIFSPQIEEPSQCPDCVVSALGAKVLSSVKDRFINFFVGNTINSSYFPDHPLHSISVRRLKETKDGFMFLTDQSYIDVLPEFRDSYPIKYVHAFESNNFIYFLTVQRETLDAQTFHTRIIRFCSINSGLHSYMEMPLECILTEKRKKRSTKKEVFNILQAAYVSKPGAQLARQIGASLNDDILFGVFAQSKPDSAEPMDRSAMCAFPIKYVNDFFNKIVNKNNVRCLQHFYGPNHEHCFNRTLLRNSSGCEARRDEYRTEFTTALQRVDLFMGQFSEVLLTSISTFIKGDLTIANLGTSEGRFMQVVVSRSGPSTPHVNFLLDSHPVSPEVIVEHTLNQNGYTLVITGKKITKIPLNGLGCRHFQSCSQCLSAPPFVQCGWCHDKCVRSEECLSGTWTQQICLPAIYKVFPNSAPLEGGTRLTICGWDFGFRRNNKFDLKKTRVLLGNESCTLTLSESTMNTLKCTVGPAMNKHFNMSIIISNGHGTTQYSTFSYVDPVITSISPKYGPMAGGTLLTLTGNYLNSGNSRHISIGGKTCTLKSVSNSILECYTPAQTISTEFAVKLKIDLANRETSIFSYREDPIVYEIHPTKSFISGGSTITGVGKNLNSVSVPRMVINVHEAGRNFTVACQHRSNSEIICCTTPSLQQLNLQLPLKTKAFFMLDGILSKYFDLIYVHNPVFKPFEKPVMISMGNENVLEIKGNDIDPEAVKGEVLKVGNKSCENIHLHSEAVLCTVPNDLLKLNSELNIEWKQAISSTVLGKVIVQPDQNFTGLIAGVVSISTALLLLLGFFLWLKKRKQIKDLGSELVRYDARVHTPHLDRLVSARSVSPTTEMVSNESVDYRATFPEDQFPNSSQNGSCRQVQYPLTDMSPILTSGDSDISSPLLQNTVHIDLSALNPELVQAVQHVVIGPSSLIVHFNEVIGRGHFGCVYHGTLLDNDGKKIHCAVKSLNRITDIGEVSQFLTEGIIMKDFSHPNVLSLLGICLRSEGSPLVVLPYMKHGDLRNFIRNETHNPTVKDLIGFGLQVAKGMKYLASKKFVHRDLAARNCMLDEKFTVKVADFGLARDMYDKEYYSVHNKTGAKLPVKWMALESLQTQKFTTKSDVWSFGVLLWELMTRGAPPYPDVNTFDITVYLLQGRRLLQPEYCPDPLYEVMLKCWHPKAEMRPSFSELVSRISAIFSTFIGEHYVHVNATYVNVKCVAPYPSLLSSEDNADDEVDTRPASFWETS
Format: biochemical
Procedure: Ki Determination for the Inhibition of c-Met
Compounds were screened for their ability to inhibit c-Met kinase activity using a standard coupled enzyme system (Fox et al., Protein Sci. 1998, 7, 2249). Reactions were carried out in a solution containing 100 mM HEPES (pH 7.5), 10 mM MgCl2, 25 mM NaCl, 300 μM NADH, 1 mM DTT, and 1.5% DMSO. Final substrate concentrations in the assay were 200 μM ATP (Sigma Chemicals, St Louis, Mo.) and 10 μM polyGluTyr (Sigma Chemical Company, St. Louis). Reactions were carried out at 30° C. and 80 nM c-Met. Final concentrations of the components of the coupled enzyme system were 2.5 mM phosphoenolpyruvate, 300 μM NADH, 30 μg/ml pyruvate kinase and 10 μg/ml lactate dehydrogenase.
An assay stock buffer solution was prepared containing all of the reagents listed above with the exception of ATP and a test compound of the present invention. The assay stock buffer solution (175 μl) was incubated in a 96 well plate with 5 μl of the test compound of the present invention at final concentrations spanning 0.006 μM to 12.5 μM at 30° C. for 10 minutes. Typically, a 12-point titration was conducted by preparing serial dilutions (from 10 mM compound stocks) with DMSO of the test compounds of the present invention in daughter plates. The reaction was initiated by the addition of 20 μl of ATP (final concentration 200 μM). Rates of reaction were obtained using a Molecular Devices Spectramax plate reader (Sunnyvale, Calif.) over 10 minutes at 30° C. The Ki values were determined from the rate data as a function of inhibitor concentration.
Compound `O=C(NC[C@@H]1CCCO1)c1cc(-c2cncn2-c2cccc(F)c2F)c[nH]1` (stereo in doubt) [Compound I-16, 4-[3-(2,3-Difluoro-phenyl)-3H-imidazol-4-yl]-1H-pyrrole-2-carboxylic acid (tetrahydro-furan-2-ylmethyl)-amide] has a Ki of 1 to 10 µM.
In the case of `O=C(NC[C@@H]1CCCO1)c1cc(-c2nnnn2-c2cccc(F)c2F)c[nH]1` (stereo in doubt) [Compound I-24, 4-[1-(2,3-Difluoro-phenyl)-1H-tetrazol-5-yl]-1H-pyrrole-2-carboxylic acid (tetrahydro-furan-2-ylmethyl)-amide], the Ki is reported as 1 to 10 µM.
In the case of `O=C(NC[C@@H]1CCCO1)c1cc(-c2cnoc2-c2cccc(F)c2F)c[nH]1` [Compound I-4, 4-[5-(2,3-Difluoro-phenyl)-isoxazol-4-yl]-1H-pyrrole-2-carboxylic acid (S-tetrahydro-furan-2-ylmethyl)-amide], the Ki is reported as 1 to 10 µM.
Compound `O=C(NC[C@@H]1CCCO1)c1cc(-n2cncc2-c2cccc(F)c2F)c[nH]1` [Compound I-10, 4-[5-(2,3-Difluoro-phenyl)-imidazol-1-yl]-1H-pyrrole-2-carboxylic acid (S-tetrahydro-furan-2-ylmethyl)-amide] has a Ki of 1 to 10 µM.
`O=C(c1cc(-c2nncn2-c2cccc(F)c2F)c[nH]1)N1CC=CC1` [Compound I-37, (4-(4-(2,3-difluorophenyl)-4H-1,2,4-triazol-3-yl)-1H-pyrrol-2-yl)(2H-pyrrol-1(5H)-yl)methanone] gave a Ki greater than 10 µM.
With `O=C(c1cc(-n2nnnc2-c2cccc(F)c2F)c[nH]1)N1CC=CC1` [Compound I-38, (4-(5-(2,3-difluorophenyl)-1H-tetrazol-1-yl)-1H-pyrrol-2-yl)(2H-pyrrol-1(5H)-yl)methanone] the Ki was 1 to 10 µM.
`O=C(NC[C@@H]1CCCO1)c1cc(-c2nncn2-c2cccc(Cl)c2Cl)c[nH]1` [Compound I-39] was tested, and the Ki was 1 to 10 µM.
In the case of `O=C(c1cc(-c2nncn2-c2cccc(Cl)c2Cl)c[nH]1)N1CC=CC1` [Compound I-40], the Ki is reported as 1 to 10 µM.
Work on `O=C(NCCCn1ccnc1)c1cc(-c2nncn2-c2cccc(Cl)c2Cl)c[nH]1` [Compound I-41] yielded a Ki of 1 to 10 µM.
Compound `O=C(NCCCn1ccnc1)c1cc(-n2cnnc2-c2cccc(F)c2F)c[nH]1` [Compound I-44, N-(3-(1H-imidazol-1-yl)propyl)-4-(3-(2,3-difluorophenyl)-4H-1,2,4-triazol-4-yl)-1H-pyrrole-2-carboxamide] has a Ki greater than 10 µM.
Compound `O=C(NC[C@@H]1CCCO1)c1cc(-c2sncc2-c2cccc(F)c2F)c[nH]1` [Compound I-46, 4-(4-(2,3-difluorophenyl)isothiazol-5-yl)-N-(((S)-tetrahydrofuran-2-yl)methyl)-1H-pyrrrole-2-carboxamide] has a Ki of 1 to 10 µM.
`O=C(c1cc(-c2[nH]nnc2-c2cccc(F)c2F)c[nH]1)N1CCCC1` [Compound I-47] was tested, and the Ki was 1 to 10 µM.
